Results from patent US11897862B2 (Gilead Sciences, Inc., priority 2022, dated 2024).

Legend:
[1] = molecular target: T1, IKZF1 (Homo sapiens, UniProt Q13422+Q96SW2); assay: HEK293 HiBiT in vitro degradation of IKZF1; type: cell-based; conditions: for DC50 / IKZF1 Dmax: HEK293 HiBiT; for DC50: 18-24 hr incubation, normalized to DMSO control, read-out: IKZF1 EC50; for Dmax: HEK293, HEK293 HiBiT; for Dmax / IKZF1 Dmax: maximum degradation at the highest concentration tested
T1 construct: expressed in transfected cells
Outline: (§1)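 Flp-In T-REx HEK293 stable pools carry a single integrated copy of C-terminal HiBiT-tagged IKZF1, IKZF2 or SALL4 under a tetracycline operator, induced overnight at 37 °C with doxycycline ([…] final). Cells were then treated with serially diluted compounds for 18-24 h. Nano-Glo lytic luminescence gave EC50 and Dmax.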

[2] = molecular target: IKZF2 (Homo sapiens, UniProt Q96SW2+Q9UKS7); assay: HEK293 HiBiT in vitro degradation of IKZF2; type: cell-based; design: expressed in transfected cells; conditions: for Dmax: HEK293, HEK293 HiBiT; for Dmax / IKZF2 Dmax: maximum degradation at the highest concentration tested; for DC50 / IKZF2 Dmax: HEK293 HiBiT; for DC50: 18-24 hr incubation, normalized to DMSO control, read-out: IKZF2 EC50
Outline: as §1

IKZF2, sequence (Q9UKS7 1-500 isoform Q9UKS7-2): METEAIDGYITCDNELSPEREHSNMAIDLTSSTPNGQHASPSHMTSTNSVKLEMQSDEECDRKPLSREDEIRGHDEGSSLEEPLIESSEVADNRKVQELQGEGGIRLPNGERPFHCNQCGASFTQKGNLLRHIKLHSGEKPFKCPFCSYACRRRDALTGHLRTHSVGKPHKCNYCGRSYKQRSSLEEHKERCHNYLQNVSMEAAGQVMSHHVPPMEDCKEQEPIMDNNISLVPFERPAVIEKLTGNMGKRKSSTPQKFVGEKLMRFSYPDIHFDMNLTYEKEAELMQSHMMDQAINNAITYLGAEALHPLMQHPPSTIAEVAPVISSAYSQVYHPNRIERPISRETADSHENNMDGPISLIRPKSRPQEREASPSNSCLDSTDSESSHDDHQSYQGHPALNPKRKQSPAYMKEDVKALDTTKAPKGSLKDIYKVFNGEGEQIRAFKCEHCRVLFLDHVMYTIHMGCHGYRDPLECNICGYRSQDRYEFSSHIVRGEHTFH
IKZF2, sequence (Q96SW2 whole entry): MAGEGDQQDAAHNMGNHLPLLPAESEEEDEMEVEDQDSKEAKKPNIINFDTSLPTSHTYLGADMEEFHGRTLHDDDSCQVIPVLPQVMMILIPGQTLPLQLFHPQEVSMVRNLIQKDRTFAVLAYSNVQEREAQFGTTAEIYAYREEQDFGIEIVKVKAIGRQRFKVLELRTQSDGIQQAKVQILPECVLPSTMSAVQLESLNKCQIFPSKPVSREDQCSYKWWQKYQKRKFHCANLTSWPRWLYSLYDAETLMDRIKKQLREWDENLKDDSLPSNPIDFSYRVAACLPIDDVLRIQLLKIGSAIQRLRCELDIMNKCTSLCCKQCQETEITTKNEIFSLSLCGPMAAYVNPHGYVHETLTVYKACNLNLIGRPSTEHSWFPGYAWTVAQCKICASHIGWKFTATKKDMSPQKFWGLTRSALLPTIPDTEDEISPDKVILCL
IKZF2, sequence (Q16531 whole entry partner): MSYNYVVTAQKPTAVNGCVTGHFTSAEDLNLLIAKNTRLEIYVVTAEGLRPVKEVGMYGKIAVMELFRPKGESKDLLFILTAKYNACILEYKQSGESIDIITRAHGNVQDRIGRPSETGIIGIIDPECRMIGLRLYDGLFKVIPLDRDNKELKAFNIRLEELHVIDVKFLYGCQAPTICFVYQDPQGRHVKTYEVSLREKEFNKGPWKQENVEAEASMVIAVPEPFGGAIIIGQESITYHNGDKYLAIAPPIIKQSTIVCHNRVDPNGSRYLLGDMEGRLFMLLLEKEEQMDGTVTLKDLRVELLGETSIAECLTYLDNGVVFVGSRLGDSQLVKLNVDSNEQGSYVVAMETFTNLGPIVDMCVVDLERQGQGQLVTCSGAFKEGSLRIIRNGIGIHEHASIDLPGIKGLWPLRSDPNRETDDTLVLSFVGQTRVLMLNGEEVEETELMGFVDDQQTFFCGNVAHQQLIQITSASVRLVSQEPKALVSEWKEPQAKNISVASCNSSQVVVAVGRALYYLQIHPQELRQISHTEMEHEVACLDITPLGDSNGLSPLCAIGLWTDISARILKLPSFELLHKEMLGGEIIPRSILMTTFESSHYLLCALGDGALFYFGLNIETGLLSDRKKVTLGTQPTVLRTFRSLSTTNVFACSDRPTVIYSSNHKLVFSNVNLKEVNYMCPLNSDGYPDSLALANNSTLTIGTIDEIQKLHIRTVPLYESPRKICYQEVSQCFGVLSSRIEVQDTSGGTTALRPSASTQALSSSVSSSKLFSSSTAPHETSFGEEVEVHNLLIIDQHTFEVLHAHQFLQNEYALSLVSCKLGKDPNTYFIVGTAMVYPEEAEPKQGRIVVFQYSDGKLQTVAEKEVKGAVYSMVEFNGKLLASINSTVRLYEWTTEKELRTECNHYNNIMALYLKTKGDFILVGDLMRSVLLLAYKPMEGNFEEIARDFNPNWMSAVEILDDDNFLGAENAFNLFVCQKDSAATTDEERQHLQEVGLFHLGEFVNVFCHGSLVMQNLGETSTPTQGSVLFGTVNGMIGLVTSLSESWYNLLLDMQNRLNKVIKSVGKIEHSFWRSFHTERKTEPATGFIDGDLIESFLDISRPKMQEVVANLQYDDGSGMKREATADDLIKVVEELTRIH
T1 sequence (Q13422 whole entry): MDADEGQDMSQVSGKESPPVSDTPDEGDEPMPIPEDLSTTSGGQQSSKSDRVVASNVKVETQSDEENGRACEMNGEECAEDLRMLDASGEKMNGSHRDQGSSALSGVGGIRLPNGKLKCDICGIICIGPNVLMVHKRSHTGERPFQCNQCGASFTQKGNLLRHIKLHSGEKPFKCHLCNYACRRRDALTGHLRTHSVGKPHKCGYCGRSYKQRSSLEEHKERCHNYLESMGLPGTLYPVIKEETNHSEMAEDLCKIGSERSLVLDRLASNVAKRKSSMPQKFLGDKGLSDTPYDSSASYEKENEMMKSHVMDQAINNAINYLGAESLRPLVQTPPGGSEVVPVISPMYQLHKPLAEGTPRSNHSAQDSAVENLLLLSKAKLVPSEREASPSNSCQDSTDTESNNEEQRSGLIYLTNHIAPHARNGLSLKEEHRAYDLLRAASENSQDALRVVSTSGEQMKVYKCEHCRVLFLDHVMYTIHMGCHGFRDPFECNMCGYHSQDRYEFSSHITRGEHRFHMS
T1 sequence (Q96SW2 whole entry): as the sequence (Q96SW2 whole entry) above
T1 sequence (Q16531 whole entry partner): as the sequence (Q16531 whole entry partner) above

DC50 [1]	Dmax [2]	DC50 [2]	Dmax [1]	IKZF2 Dmax [2]	IKZF1 Dmax [1]	SMILES
> 1000 nM	96%	4 nM	–	–	–	CC1(C)CCCC(N[C@H]2CCCC[C@@H]2Cc2ccc3c(c2)CN(C2CCC(=O)NC2=O)C3=O)C1 (single isomer, unassigned) [Example 275]
> 1000 nM	75%	38 nM	–	–	–	O=C1CC[C@H](N2Cc3cc(C[C@H]4CCCC[C@@H]4NC4CCC(F)(F)CC4)cc(F)c3C2=O)C(=O)N1 [Example 347]
243 nM	–	6 nM	33%	94%	–	COC1(C)CCC(N[C@H]2CCCO[C@@H]2Cc2ccc3c(c2F)CN(C2CCC(=O)NC2=O)C3=O)CC1 (single isomer, unassigned) [Example 317]
206 nM	75%	46 nM	34%	–	–	O=C1CCC(N2Cc3cc(C[C@H]4CCCC[C@@H]4NCc4cccnc4C(F)(F)F)ccc3C2=O)C(=O)N1 (stereo partly drawn) [Example 58, 3-(1-oxo-5-(((1R,2S)-2-(((2-(trifluoromethyl)pyridin-3-yl)methyl)amino)cyclohexyl)methyl)isoindolin-2-yl)piperidine-2,6-dione]
> 1000 nM	71%	400 nM	–	–	–	O=C1CCC(N2Cc3cc(C[C@H]4CCCC[C@@H]4NC4CCC(n5cnnc5)CC4)ccc3C2=O)C(=O)N1 (some centres unmarked) [Example 380]
> 1000 nM	80%	114 nM	–	–	–	O=C1CCC(N2Cc3cc(C[C@H]4CCOC[C@@H]4NC4CCC(F)(F)CC4)ccc3C2=O)C(=O)N1 (some centres unmarked) [Example 126]
> 1000 nM	95%	23 nM	–	–	–	C[C@@H](N[C@H]1CCCC[C@@H]1Cc1ccc2c(c1)CN(C1CCC(=O)NC1=O)C2=O)c1ccccc1 (stereo partly drawn) [Example 61, 3-(1-oxo-5-(((1R,2S)-2-(((R)-1-phenylethyl)amino)cyclohexyl)methyl)isoindolin-2-yl)piperidine-2,6-dione]
> 1000 nM	96%	6 nM	–	–	–	COCC1CCC(N[C@H]2CCCO[C@@H]2Cc2ccc3c(c2F)CN(C2CCC(=O)NC2=O)C3=O)CC1 (single isomer, unassigned) [Example 264]
> 1000 nM	–	21 nM	–	92%	–	CC(N[C@H]1CCCO[C@@H]1Cc1ccc2c(c1F)CN(C1CCC(=O)NC1=O)C2=O)C1CCC1 (single isomer, unassigned) [Example 248]
> 1000 nM	87%	42 nM	–	–	–	O=C1CCC(N2Cc3cc(C[C@H]4CCCC[C@@H]4NCc4ccc(C(F)(F)F)cc4)ccc3C2=O)C(=O)N1 (stereo partly drawn) [Example 16, 3-(1-oxo-5-(((1R,2S)-2-((4-(trifluoromethyl)benzyl)amino)cyclohexyl)methyl)isoindolin-2-yl)piperidine-2,6-dione]
> 10000 nM	95%	10 nM	–	–	–	O=C1CCC(N2Cc3cc(C[C@H]4CCCC[C@@H]4NC4C5CCCC4CC5)ccc3C2=O)C(=O)N1 (some centres unmarked) [Example 199]
> 1000 nM	89%	25 nM	–	–	–	CC(C)(C)CN[C@H]1CCCC[C@@H]1Cc1ccc2c(c1)CN(C1CCC(=O)NC1=O)C2=O (stereo partly drawn) [Example 57, 3-(5-(((1R,2S)-2-(neopentylamino)cyclohexyl)methyl)-1-oxoisoindolin-2-yl)piperidine-2,6-dione]
> 1000 nM	97%	5 nM	–	–	–	CC(C)OC1CCC(N[C@H]2CCCO[C@@H]2Cc2ccc3c(c2F)CN(C2CCC(=O)NC2=O)C3=O)CC1 (single isomer, unassigned) [Example 284]
> 1000 nM	97%	6 nM	–	–	–	O=C1CCC(N2Cc3c(ccc(O[C@H]4CCCC[C@@H]4NC4CCC(F)(F)CC4)c3F)C2=O)C(=O)N1 (some centres unmarked) [Reference Compound B-1, reference compound]
51 nM	80%	28 nM	29%	–	–	O=C1CCC(N2Cc3cc(C[C@H]4CCCC[C@@H]4N4CC5(CN(Cc6ccccc6Cl)C5)C4)ccc3C2=O)C(=O)N1 (stereo partly drawn) [Example 34, 3-(5-(((1R,2S)-2-(6-(2-chlorobenzyl)-2,6-diazaspiro[3.3]heptan-2-yl)cyclohexyl)methyl)-1-oxoisoindolin-2-yl)piperidine-2,6-dione]
> 1000 nM	94%	5 nM	–	–	–	O=C1CC[C@@H](N2Cc3c(ccc(C[C@H]4OCCC[C@@H]4N[C@H]4CC[C@@H](F)CC4)c3F)C2=O)C(=O)N1 (single isomer, unassigned) [Example 372]
> 1000 nM	92%	6 nM	–	–	–	O=C1CC[C@H](N2Cc3c(ccc(C[C@H]4OCCC[C@@H]4NC4CCCCC4)c3F)C2=O)C(=O)N1 (single isomer, unassigned) [Example 338]
78 nM	–	8 nM	–	96%	37%	O=C1CCC(N2Cc3c(ccc(C[C@H]4CCCC[C@@H]4NCC4CCOCC4)c3F)C2=O)C(=O)N1 (some centres unmarked) [Example 187]

DC50 [1]	Dmax [2]	DC50 [2]	Dmax [1]	IKZF2 Dmax [2]	IKZF1 Dmax [1]	SMILES
933 nM	82%	225 nM	30%	–	–	N[C@H]1CCCC[C@@H]1Cc1ccc2c(c1)CN(C1CCC(=O)NC1=O)C2=O (stereo partly drawn) [Example 1, 3-(5-(((1R,2S)-2-aminocyclohexyl)methyl)-1-oxoisoindolin-2-yl)piperidine-2,6-dione]
> 1000 nM	80%	45 nM	–	–	–	O=C1CCC(N2Cc3cc(C[C@H]4CCCC[C@@H]4NCc4cncc(F)c4)ccc3C2=O)C(=O)N1 (stereo partly drawn) [Example 51, 3-(5-(((1R,2S)-2-(((5-fluoropyridin-3-yl)methyl)amino)cyclohexyl)methyl)-1-oxoisoindolin-2-yl)piperidine-2,6-dione]
249 nM	–	9 nM	–	101%	43%	O=C1CCC(N2Cc3cc(C[C@H]4CCCC[C@@H]4NC4CCc5cn[nH]c5C4)ccc3C2=O)C(=O)N1 (single isomer, unassigned) [Example 359]
78 nM	96%	4 nM	45%	–	–	O=C1CCC(N2Cc3cc(C[C@H]4CCCC[C@@H]4NC4CCc5ccccc54)ccc3C2=O)C(=O)N1 (some centres unmarked) [Example 131]
> 500 nM	–	11 nM	–	94%	–	CC(N[C@H]1CCCC[C@@H]1Cc1ccc2c(c1)CN(C1CCC(=O)NC1=O)C2=O)C1(F)CC1 (single isomer, unassigned) [Example 225]
> 1000 nM	94%	7 nM	–	–	–	CCC(C)N[C@H]1CCCO[C@@H]1Cc1ccc2c(c1F)CN(C1CCC(=O)NC1=O)C2=O (single isomer, unassigned) [Example 292]
124 nM	–	8 nM	37%	94%	–	CC(C)OC1CCC(N[C@H]2CCCO[C@@H]2Cc2ccc3c(c2F)CN(C2CCC(=O)NC2=O)C3=O)CC1 (single isomer, unassigned) [Example 285]
> 1000 nM	49%	409 nM	–	–	–	CN(Cc1ccccc1)[C@H]1CCCC[C@@H]1Cc1ccc2c(c1)CN(C1CCC(=O)NC1=O)C2=O (stereo partly drawn) [Example 21, 3-(5-(((1R,2S)-2-(benzyl(methyl)amino)cyclohexyl)methyl)-1-oxoisoindolin-2-yl)piperidine-2,6-dione]
574 nM	96%	5 nM	39%	–	–	O=C1CCC(N2Cc3cc(C[C@H]4CCCC[C@@H]4NC4CC5CC(C5)C4)ccc3C2=O)C(=O)N1 (stereo partly drawn) [Example 29, 3-(5-(((1R,2S)-2-(bicyclo[3.1.1]heptan-3-ylamino)cyclohexyl)methyl)-1-oxoisoindolin-2-yl)piperidine-2,6-dione]
> 1000 nM	90%	21 nM	–	–	–	O=C1CCC(N2Cc3cc(C[C@H]4CCCC[C@@H]4N4CC(Oc5ccccc5)C4)ccc3C2=O)C(=O)N1 (stereo partly drawn) [Example 32, 3-(1-oxo-5-(((1R,2S)-2-(3-phenoxyazetidin-1-yl)cyclohexyl)methyl)isoindolin-2-yl)piperidine-2,6-dione]
> 1000 nM	98%	7 nM	–	–	–	O=C1CCC(N2Cc3c(ccc(C[C@H]4CCCC[C@@H]4NCc4ccccc4)c3F)C2=O)C(=O)N1 (stereo partly drawn) [Example 11, 3-(5-(((1R,2S)-2-(benzylamino)cyclohexyl)methyl)-4-fluoro-1-oxoisoindolin-2-yl)piperidine-2,6-dione]
> 1000 nM	79%	56 nM	–	–	–	O=C1CCC(N2Cc3cc(C[C@H]4CCCC[C@@H]4NCc4cccnc4F)ccc3C2=O)C(=O)N1 (some centres unmarked) [Example 62]
44 nM	96%	3 nM	62%	–	–	O=C1CCC(N2Cc3cc(C[C@H]4CCCC[C@@H]4NC4CCC(c5ccccn5)CC4)ccc3C2=O)C(=O)N1 (some centres unmarked) [Example 379]
> 1000 nM	96%	9 nM	–	–	–	O=C1CCC(N2Cc3cc(C[C@H]4CCCC[C@@H]4NC4CCC5COC4O5)ccc3C2=O)C(=O)N1 (some centres unmarked) [Example 195]
> 1000 nM	66%	88 nM	–	–	–	O=C1CCC(N2Cc3cc(C[C@H]4CCCC[C@@H]4NCc4ccc(F)cn4)ccc3C2=O)C(=O)N1 (stereo partly drawn) [Example 49, 3-(5-(((1R,2S)-2-(((5-fluoropyridin-2-yl)methyl)amino)cyclohexyl)methyl)-1-oxoisoindolin-2-yl)piperidine-2,6-dione]
> 1000 nM	96%	8 nM	–	–	–	O=C1CC[C@H](N2Cc3c(ccc(C[C@H]4OCCC[C@@H]4N[C@H]4CC[C@@H](C(F)F)CC4)c3F)C2=O)C(=O)N1 [Example 368]
223 nM	96%	27 nM	33%	–	–	O=C1CCC(N2Cc3cc(C[C@H]4CCCC[C@@H]4NC4CCC45COC5)ccc3C2=O)C(=O)N1 (single isomer, unassigned) [Example 286]
